Source: patent publication US20220112479A1, “COMPOUNDS STABILIZING AMYLASES IN LIQUIDS” (BASF SE, priority 2018, published 2022)

Experiments:
Format in all cases: biochemical
Amy1=Stainzyme = test: amylase storage stability in liquid formulation (pNP release from Ethyliden-blocked-pNPG7); parameters: key: % of activity in reference formulation at time 0; settings: storage at 37° C.
Method: (§1) The storage stability of amylase was assessed at 37° C. Base test formulations were manufactured by making base formulations I to V by mixing the components according to Table 1. Amylases used: Amy1=Stainzyme, Amy2=Amplify, Amy3=Stainzyme Plus L (12L) The respective component (a) or comparative compound was added, if applicable, to the respective base formulation in amounts as indicated in Table 1. The amount of amylase as provided in Table 1 refers to active protein. Water was added to accomplish the balance to 100. […] Amylase activity at certain points in time as indicated in Table 2 was measured quantitatively by the release of the chromophore para-nitrophenol (pNP) from the substrate ([…]-blocked-pNPG7, Roche Applied Science 10880078103). The alpha-amylase degrades the substrate into smaller molecules and α-glucosidase (Roche Applied Science 11626329103), which is present in excess compared to the amylase, process these smaller products until pNP is released; the release of pNP, measured via an increase of absorption at 405 nm, is directly proportional to the amylase activity of the sample. Amylase standard: […] 120 L (Sigma 3403). […] The amylolytic activity values provided were calculated referring to the value determined in the reference formulation at the time 0. The nomenclature of formulations is as follows: the Roman number before the full stop characterizes the base formulation, the Arabian number the type of compound (A.# compound according to invention (component (a)); B.# comparative compound).

Savinase Ultra 16.0L = target: T1, Savinase Ultra 16.0L (Lederbergia lenta, UniProt P29600); test: protease storage stability in liquid formulation (Suc-AAPF-pNA substrate); settings: storage at 37° C.
T1 construct: purchased Sigma-Aldrich
T1 sequence (P29600 1-269): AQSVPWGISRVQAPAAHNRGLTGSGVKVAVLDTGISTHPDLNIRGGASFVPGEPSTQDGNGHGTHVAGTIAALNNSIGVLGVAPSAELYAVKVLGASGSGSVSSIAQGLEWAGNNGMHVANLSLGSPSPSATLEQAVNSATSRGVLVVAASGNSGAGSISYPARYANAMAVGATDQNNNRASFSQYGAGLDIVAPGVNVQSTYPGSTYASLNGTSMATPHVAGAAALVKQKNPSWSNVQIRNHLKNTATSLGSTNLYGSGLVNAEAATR
Method: Base test formulations were manufactured by making base formulations I to V by mixing the components according to Table 1.
Protease used: (S) Savinase Ultra 16.0L (CAS-No. 9014-01-1, EC-No. 232-752-2) was purchased from Sigma-Aldrich
The respective component (a) or comparative compound was added, if applicable, to the respective base formulation in amounts as indicated in Table 1.
The amount of protease as provided in Table 1 refers to active protein.
Water was added to accomplish the balance to 100.
Protease activity at certain points in time as indicated in Table 3 was be determined by employing Succinyl-Ala-Ala-Pro-Phe-p-nitroanilide (Suc-AAPF-pNA, short AAPF) as substrate. pNA is cleaved from the substrate molecule by proteolytic cleavage, resulting in release of yellow color of free pNA which was determined by measuring […]. Measurements were done at 20° C.
The proteolytic activity values provided in Table 3 were calculated referring to the value determined in the reference formulation at the time 0.
The nomenclature of formulations is as follows: the Roman number before the full stop characterizes the base formulation, the Arabian number the type of salt (A.#inventive salt (component (a)); B.# comparative compound). Zero (“0”): no salt, but diethylene glycol.

Amy2=Amplify = test: amylase storage stability in liquid formulation (pNP release from Ethyliden-blocked-pNPG7); parameters: key: % of activity in reference formulation at time 0; settings: base formulation III., 1.5 wt % component (a), storage at 37° C.
Method: as §1

[1] = base formulation IV., 2.0 wt % component (a), 3 d
[2] = base formulation IV., 2.0 wt % component (a), 7 d
[3] = base formulation IV., 2.0 wt % component (a), 14 d
[4] = base formulation IV., 2.0 wt % component (a), 21 d
[5] = base formulation IV., 2.0 wt % component (a), 28 d
[6] = base formulation IV., 2.0 wt % component (a), 42 d
[7] = base formulation IV., 2.0 wt % component (a), T0
[8] = base formulation I., 1.5 wt % component (a), 3 d
[9] = base formulation I., 1.5 wt % component (a), 7 d
[10] = base formulation I., 1.5 wt % component (a), 14 d
[11] = base formulation I., 1.5 wt % component (a), 21 d
[12] = base formulation I., 1.5 wt % component (a), 28 d
[13] = base formulation I., 1.5 wt % component (a), 42 d
[14] = base formulation I., 1.5 wt % component (a), T0
[15] = base formulation III., 1.5 wt % component (a), 3 d
[16] = base formulation III., 1.5 wt % component (a), 7 d
[17] = base formulation III., 1.5 wt % component (a), 14 d
[18] = base formulation III., 1.5 wt % component (a), 21 d
[19] = base formulation III., 1.5 wt % component (a), 28 d
[20] = base formulation III., 1.5 wt % component (a), 42 d
[21] = base formulation III., 1.5 wt % component (a), T0

## CCCCOC(=O)CC(O)(CC(=O)OCCCC)C(=O)OCCCC [A.3, Tributylcitrate]
Amy1=Stainzyme; [1]
  amylase activity, referring to reference formulation at time 0: 95
Amy1=Stainzyme; [2]
  amylase activity, referring to reference formulation at time 0: 90
Amy1=Stainzyme; [3]
  amylase activity, referring to reference formulation at time 0: 84
Amy1=Stainzyme; [4]
  amylase activity, referring to reference formulation at time 0: 77
Amy1=Stainzyme; [5]
  amylase activity, referring to reference formulation at time 0: 68
Amy1=Stainzyme; [6]
  amylase activity, referring to reference formulation at time 0: 57
Amy1=Stainzyme; [7]
  amylase activity, referring to reference formulation at time 0: 98
Savinase Ultra 16.0L; [1]
  protease activity, referring to reference formulation at time 0: 98
Savinase Ultra 16.0L; [2]
  protease activity, referring to reference formulation at time 0: 90
Savinase Ultra 16.0L; [3]
  protease activity, referring to reference formulation at time 0: 85
Savinase Ultra 16.0L; [4]
  protease activity, referring to reference formulation at time 0: 78
Savinase Ultra 16.0L; [5]
  protease activity, referring to reference formulation at time 0: 70
Savinase Ultra 16.0L; [6]
  protease activity, referring to reference formulation at time 0: 67
Savinase Ultra 16.0L; [7]
  protease activity, referring to reference formulation at time 0: 99

## CCCCOC(=O)CC(CC(=O)OCCCC)(OC(C)=O)C(=O)OCCCC [A.4, Acetyltributylcitrate]
Savinase Ultra 16.0L; [8]
  protease activity, referring to reference formulation at time 0: 100
Savinase Ultra 16.0L; [9]
  protease activity, referring to reference formulation at time 0: 94
Savinase Ultra 16.0L; [10]
  protease activity, referring to reference formulation at time 0: 90
Savinase Ultra 16.0L; [11]
  protease activity, referring to reference formulation at time 0: 84
Savinase Ultra 16.0L; [12]
  protease activity, referring to reference formulation at time 0: 82
Savinase Ultra 16.0L; [13]
  protease activity, referring to reference formulation at time 0: 70
Savinase Ultra 16.0L; [14]
  protease activity, referring to reference formulation at time 0: 102
Savinase Ultra 16.0L; base formulation II., 1.5 wt % component (a), 3 d
  protease activity, referring to reference formulation at time 0: 100
Savinase Ultra 16.0L; base formulation II., 1.5 wt % component (a), 7 d
  protease activity, referring to reference formulation at time 0: 95
Savinase Ultra 16.0L; base formulation II., 1.5 wt % component (a), 14 d
  protease activity, referring to reference formulation at time 0: 90
Savinase Ultra 16.0L; base formulation II., 1.5 wt % component (a), 21 d
  protease activity, referring to reference formulation at time 0: 85
Savinase Ultra 16.0L; base formulation II., 1.5 wt % component (a), 28 d
  protease activity, referring to reference formulation at time 0: 81
Savinase Ultra 16.0L; base formulation II., 1.5 wt % component (a), 42 d
  protease activity, referring to reference formulation at time 0: 70
Savinase Ultra 16.0L; base formulation II., 1.5 wt % component (a), T0
  protease activity, referring to reference formulation at time 0: 102
Savinase Ultra 16.0L; [15]
  protease activity, referring to reference formulation at time 0: 99
Savinase Ultra 16.0L; [16]
  protease activity, referring to reference formulation at time 0: 95
Savinase Ultra 16.0L; [17]
  protease activity, referring to reference formulation at time 0: 91
Savinase Ultra 16.0L; [18]
  protease activity, referring to reference formulation at time 0: 86
Savinase Ultra 16.0L; [19]
  protease activity, referring to reference formulation at time 0: 81
Savinase Ultra 16.0L; [20]
  protease activity, referring to reference formulation at time 0: 70
Savinase Ultra 16.0L; [21]
  protease activity, referring to reference formulation at time 0: 101
Savinase Ultra 16.0L; base formulation V., 2.0 wt % component (a), 3 d
  protease activity, referring to reference formulation at time 0: 94
Savinase Ultra 16.0L; base formulation V., 2.0 wt % component (a), 7 d
  protease activity, referring to reference formulation at time 0: 90
Savinase Ultra 16.0L; base formulation V., 2.0 wt % component (a), 14 d
  protease activity, referring to reference formulation at time 0: 85
Savinase Ultra 16.0L; base formulation V., 2.0 wt % component (a), 21 d
  protease activity, referring to reference formulation at time 0: 80
Savinase Ultra 16.0L; base formulation V., 2.0 wt % component (a), 28 d
  protease activity, referring to reference formulation at time 0: 76
Savinase Ultra 16.0L; base formulation V., 2.0 wt % component (a), 42 d
  protease activity, referring to reference formulation at time 0: 68
Savinase Ultra 16.0L; base formulation V., 2.0 wt % component (a), T0
  protease activity, referring to reference formulation at time 0: 98

## Monoethylcitrate [A.6]
Amy1=Stainzyme; [8]
  amylase activity, referring to reference formulation at time 0: 95
Amy1=Stainzyme; [9]
  amylase activity, referring to reference formulation at time 0: 84
Amy1=Stainzyme; [10]
  amylase activity, referring to reference formulation at time 0: 79
Amy1=Stainzyme; [11]
  amylase activity, referring to reference formulation at time 0: 70
Amy1=Stainzyme; [12]
  amylase activity, referring to reference formulation at time 0: 61
Amy1=Stainzyme; [13]
  amylase activity, referring to reference formulation at time 0: 48
Amy1=Stainzyme; [14]
  amylase activity, referring to reference formulation at time 0: 98
Amy2=Amplify; 3 d
  amylase activity, referring to reference formulation at time 0: 96
Amy2=Amplify; 7 d
  amylase activity, referring to reference formulation at time 0: 90
Amy2=Amplify; 14 d
  amylase activity, referring to reference formulation at time 0: 83
Amy2=Amplify; 21 d
  amylase activity, referring to reference formulation at time 0: 74
Amy2=Amplify; 28 d
  amylase activity, referring to reference formulation at time 0: 63
Amy2=Amplify; 42 d
  amylase activity, referring to reference formulation at time 0: 49
Amy2=Amplify; T0
  amylase activity, referring to reference formulation at time 0: 97
Savinase Ultra 16.0L; [8]
  protease activity, referring to reference formulation at time 0: 94
Savinase Ultra 16.0L; [9]
  protease activity, referring to reference formulation at time 0: 90
Savinase Ultra 16.0L; [10]
  protease activity, referring to reference formulation at time 0: 81
Savinase Ultra 16.0L; [11]
  protease activity, referring to reference formulation at time 0: 73
Savinase Ultra 16.0L; [12]
  protease activity, referring to reference formulation at time 0: 67
Savinase Ultra 16.0L; [13]
  protease activity, referring to reference formulation at time 0: 56
Savinase Ultra 16.0L; [14]
  protease activity, referring to reference formulation at time 0: 100
Savinase Ultra 16.0L; [15]
  protease activity, referring to reference formulation at time 0: 94
Savinase Ultra 16.0L; [16]
  protease activity, referring to reference formulation at time 0: 90
Savinase Ultra 16.0L; [17]
  protease activity, referring to reference formulation at time 0: 84
Savinase Ultra 16.0L; [18]
  protease activity, referring to reference formulation at time 0: 78
Savinase Ultra 16.0L; [19]
  protease activity, referring to reference formulation at time 0: 70
Savinase Ultra 16.0L; [20]
  protease activity, referring to reference formulation at time 0: 62
Savinase Ultra 16.0L; [21]
  protease activity, referring to reference formulation at time 0: 100
